In ChEMBL document CHEMBL1641554, “Synthesis and SAR study of diphenylbutylpiperidines as cell autophagy inducers” (Bioorg Med Chem Lett, 2011):

Tested on: H4
Assay: Induction of autophagy in human H4 cells expressing LC3 using DAPI staining after 4 hrs by fluorescence microscopic analysis
Format: functional, cell-based
Conditions: H4, 4 h

| SMILES | EC50 [µM] |
| --- | --- |
| N#CC(CCCN1CCC2(CC1)C(=O)NCN2c1ccccc1)(c1ccccc1)c1ccccc1 | 14.8 |
| O=C1NCN(c2ccccc2)C12CCN(CCCN(c1ccccc1)c1ccccc1)CC2 | 24.9 |
| O=C1NCN(c2ccccc2)C12CCN(CCC=C(c1ccc(F)cc1)c1ccc(F)cc1)CC2 | 6.2 |
| O=C(CCC(c1ccc(F)cc1)c1ccc(F)cc1)N1CCC2(CC1)C(=O)NCN2c1ccccc1 | > 50 |
| O=C1NCN(c2ccccc2)C12CCN(CCCC(O)c1ccc(F)cc1)CC2 (stereo unspecified) | > 50 |
| O=C1NCN(c2ccccc2)C12CCN(CC/C=C\c1ccc(F)cc1)CC2 | > 50 |
| O=C1NCN(c2ccccc2)C12CCN(CCCCC(c1ccc(F)cc1)c1ccc(F)cc1)CC2 | 4.7 |
| O=C1NCN(c2ccccc2)C12CCN(CCC(c1ccc(F)cc1)c1ccc(F)cc1)CC2 | 2.1 |
| O=C1NCN(c2ccccc2)C12CCN(CCCC(c1ccccc1)c1ccccc1)CC2 | 34.6 |
| O=C1NCN(c2ccccc2)C12CCN(CCCC(c1ccc(Cl)cc1)c1ccc(Cl)cc1)CC2 | 4.2 |
| O=C1NCN(c2ccccc2)C12CCN(CCCC(c1ccc(C(F)(F)F)cc1)c1ccc(C(F)(F)F)cc1)CC2 | 3.7 |
| Cc1ccc(C(CCCN2CCC3(CC2)C(=O)NCN3c2ccccc2)c2ccc(C)cc2)cc1 | 3.1 |
| COc1ccc(C(CCCN2CCC3(CC2)C(=O)NCN3c2ccccc2)c2ccc(OC)cc2)cc1 | 4.6 |
| OC1(c2ccc(Cl)c(C(F)(F)F)c2)CCN(CCCC(c2ccc(OC(F)(F)F)cc2)c2ccc(OC(F)(F)F)cc2)CC1 | 0.97 |
| OC1(c2ccc(Cl)c(C(F)(F)F)c2)CCN(CCCC(c2cccc(F)c2)c2cccc(F)c2)CC1 | 2.2 |
| OC1(c2ccc(Cl)c(C(F)(F)F)c2)CCN(CCCC(c2cccc(C(F)(F)F)c2)c2cccc(C(F)(F)F)c2)CC1 | 0.65 |
| Cc1cccc(C(CCCN2CCC(O)(c3ccc(Cl)c(C(F)(F)F)c3)CC2)c2cccc(C)c2)c1 | 0.29 |
| O=C1NCN(c2ccccc2)C12CCN(C1c3ccccc3Sc3ccccc31)CC2 | > 50 |
| OC1(c2ccc(C(F)(F)F)c(Cl)c2)CCN(C2c3ccccc3-c3ccccc32)CC1 | 2.6 |
| OC1(c2ccc(C(F)(F)F)c(Cl)c2)CCN(C2c3ccccc3Sc3ccccc32)CC1 | 14.4 |
| OC1(c2ccc(C(F)(F)F)c(Cl)c2)CCN(C2c3ccccc3CCc3ccccc32)CC1 | 2.6 |
| CN1CCN(CCCC(c2ccc(F)cc2)c2ccc(F)cc2)CC1 | > 50 |
| OCCN1CCN(CCCC(c2ccc(F)cc2)c2ccc(F)cc2)CC1 | > 50 |

| SMILES | EC50 [µM] |
| --- | --- |
| Fc1ccc(C(CCCN2CCN(c3ccc(Cl)cc3)CC2)c2ccc(F)cc2)cc1 | > 50 |
| Fc1ccc(C(CCCN2CCOCC2)c2ccc(F)cc2)cc1 | > 50 |
| Cc1ccc(C2=CCN(CCCC(c3ccc(F)cc3)c3ccc(F)cc3)CC2)cc1 | > 50 |
| Cc1ccc(C2CCN(CCCC(c3ccc(F)cc3)c3ccc(F)cc3)CC2)cc1 | > 50 |
| Cc1ccc(C2(O)CCN(CCCC(c3ccc(F)cc3)c3ccc(F)cc3)CC2)cc1 | 6.4 |
| CC(=O)OC1(c2ccc(C)cc2)CCN(CCCC(c2ccc(F)cc2)c2ccc(F)cc2)CC1 | 4.4 |
| CC(=O)NC1(c2ccc(C)cc2)CCN(CCCC(c2ccc(F)cc2)c2ccc(F)cc2)CC1 | 2.2 |
| N#CC1(c2ccccc2)CCN(CCCC(c2ccc(F)cc2)c2ccc(F)cc2)CC1 | 10.5 |
| OC1(c2ccc(Cl)c(C(F)(F)F)c2)CCN(CCC=C(c2ccc(F)cc2)c2ccc(F)cc2)CC1 | 4.3 |
| O=C(CCC(c1ccc(F)cc1)c1ccc(F)cc1)N1CCC(O)(c2ccc(Cl)c(C(F)(F)F)c2)CC1 | > 50 |
| OC1(c2ccc(Cl)c(C(F)(F)F)c2)CCN(CCCCC(c2ccc(F)cc2)c2ccc(F)cc2)CC1 | 2.7 |
| OC1(c2ccc(Cl)c(C(F)(F)F)c2)CCN(CCC(c2ccc(F)cc2)c2ccc(F)cc2)CC1 | 4.5 |
| OC1(c2ccc(Cl)c(C(F)(F)F)c2)CCN(CCCC(c2ccccc2)c2ccccc2)CC1 | 5.1 |
| OC1(c2ccc(Cl)c(C(F)(F)F)c2)CCN(CCCC(c2ccc(Cl)cc2)c2ccc(Cl)cc2)CC1 | 2.4 |
| OC1(c2ccc(Cl)c(C(F)(F)F)c2)CCN(CCCC(c2ccc(C(F)(F)F)cc2)c2ccc(C(F)(F)F)cc2)CC1 | 0.28 |
| Cc1ccc(C(CCCN2CCC(O)(c3ccc(Cl)c(C(F)(F)F)c3)CC2)c2ccc(C)cc2)cc1 | 0.29 |
| COc1ccc(C(CCCN2CCC(O)(c3ccc(Cl)c(C(F)(F)F)c3)CC2)c2ccc(OC)cc2)cc1 | 1.2 |
| O=C1NCN(c2ccccc2)C12CCN(C1c3ccccc3-c3ccccc31)CC2 | 7.9 |
| O=C1NCN(c2ccccc2)C12CCN(C1c3ccccc3CCc3ccccc31)CC2 | 5.1 |
| N#CC(CCCN1CCC(O)(c2ccc(Cl)c(C(F)(F)F)c2)CC1)(c1ccccc1)c1ccccc1 | 3.2 |
| O=C1NCN(c2ccccc2)C12CCN(CCCCc1ccc(F)cc1)CC2 | > 50 |
| O=C1NCN(c2ccccc2)C12CCN(CCCC(c1ccc(F)cc1)c1ccc(F)cc1)CC2 [FLUSPIRILENE] | 2.4 |
| OC1(c2ccc(Cl)c(C(F)(F)F)c2)CCN(CCCC(c2ccc(F)cc2)c2ccc(F)cc2)CC1 [PENFLURIDOL] | 3.2 |
